Data reported in patent US20080292584A1 (priority 2005, published 2008).
Values joined by “and” are separate entries in the source; they are usually repeats but may differ in a detail not shown here. Identical values can stand only once. Like-named read-outs stand apart in the source and are kept apart here.

Tests used:
CYP2D6 = CYP2D6 (Homo sapiens, UniProt P10635); conditions: both, pH 7.4; for Mean Conc.: 60 min; for % Turnover Mean: microsomes, 1 h
Method: (§1) Human liver microsomes pooled from 15 individuals (male and female) (Pool HMMC-PL020; CellzDirect, Inc., In Vitro Products and Services Division) were used in some experiments of this study.
(§2) % Turnover=100−{[TA(final)]/[mean of TA(0 min)]}×100,
(§3) % Inhibition of Turnover=100{1−([TA(0 min)]−[TA(final-inhibitor)])/([TA(0 min)]−[TA(final-no inhibitor)])}.
(§4) The inhibitors or vehicle control were incubated with the pooled human liver microsomes (1 mg/mL) and NADPH (1 mM) in 0.1 M phosphate buffer, pH 7.4. […] Incubations were conducted in triplicate and terminated by addition of organic solvent. Samples were extracted and analyzed by LC-MS/MS as described above.

CYP2C19 = CYP2C19 (Homo sapiens, UniProt P33261); experiment: in vitro; conditions: pooled human liver microsomes, probe S-mephenytoin 50 μM (to 4′-hydroxy mephenytoin);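 note: CYP2C19 incubations ran for 30 minutes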
Method: Microsomes were prepared by differential centrifugation of liver homogenates pooled from at least ten human donors.
After a 5 minute preincubation, NADPH regenerating system (NRS) was added to initiate the reaction. CYP2A6 and CYP3A4 incubations were for 10 minutes. All other incubations were for 30 minutes.
Incubations for CYP2C8 were terminated by adding 1.0 mL of ACN, while all other incubations were terminated by adding 1.0 mL of methanol.
Vehicle control experiments were performed to establish a baseline value for enzyme activity. […] Four replicates were performed.
Two replicates were performed. […] No interference was detected in any of the metabolite assay methods used.

CYP3A4 = CYP3A4 (Homo sapiens, UniProt P08684); experiment: Metabolism of metaxalone by expressed recombinant human CYP3A4 (Example 1); conditions: 30 min;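 note: microsomes holding 10 pmol P450, reactions started by an NADPH regenerating system after 5 min preincubation, 0.5 mL final volume, background signal taken from matrix controls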
Method: Commercially available microsomes from baculovirus-infected insect cells containing singly-expressed recombinant wild-type (*1 allele) human CYP enzymes and cDNA-expressed human cytochrome p450 oxidoreductase [BD SUPERSOMES Enzymes; BD Biosciences Discovery Labware (Woburn, Mass.)] were used.
After a 5-minute pre-incubation, an NADPH regenerating system (NRS) was added to the incubation mixtures to initiate reactions, with a final incubation volume of 0.5 mL. Incubations were continued for 30 minutes, and then terminated, except for those for CYP2C19, which were incubated for 36 minutes prior to termination.
Matrix controls were performed to determine the background signal from the matrix components (microsomes (10 pmol p450), 01N Tris buffer, NRS, and 1% methanol). […] After a 5-minute pre-incubation, 2% sodium bicarbonate solution was added to the incubation mixtures. Incubation was for 30 minutes at a final volume of 0.5 mL. Matrix and metabolic negative controls were terminated by adding an equal volume of methanol. […] Analysis of samples was subsequent to storage at −70° C.

CYP2B6 = biological target: T1, CYP2B6 (Homo sapiens, UniProt P20813); experiment: Metabolism of metaxalone by expressed recombinant human CYP2B6 at 5 or 20 pmol (Example 4); conditions: for % Turnover Mean / [metaxalone] Mean / % Turnover % / [metaxalone]: 60 min; for % Turnover % / [metaxalone]: single replicates
T1 sequence (P20813 1-491): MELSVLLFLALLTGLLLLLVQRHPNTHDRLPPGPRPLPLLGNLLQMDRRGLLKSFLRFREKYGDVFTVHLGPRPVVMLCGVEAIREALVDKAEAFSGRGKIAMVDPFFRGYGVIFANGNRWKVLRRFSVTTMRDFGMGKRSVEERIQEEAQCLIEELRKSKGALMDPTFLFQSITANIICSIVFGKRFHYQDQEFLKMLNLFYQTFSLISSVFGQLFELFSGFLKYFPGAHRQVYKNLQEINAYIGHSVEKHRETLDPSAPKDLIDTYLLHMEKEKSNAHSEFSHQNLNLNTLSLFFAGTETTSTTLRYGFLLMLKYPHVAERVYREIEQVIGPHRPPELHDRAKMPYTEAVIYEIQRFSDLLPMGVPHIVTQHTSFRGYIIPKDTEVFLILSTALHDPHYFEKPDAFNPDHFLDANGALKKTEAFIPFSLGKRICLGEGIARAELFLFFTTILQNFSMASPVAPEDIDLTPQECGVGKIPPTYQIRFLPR

CYP2C8 = biological target: T2, CYP2C8 (Homo sapiens, UniProt P10632); experiment: Metabolism of metaxalone by expressed recombinant human CYP2C8 at 5 or 20 pmol (Example 4); conditions: for % Turnover Mean / [metaxalone] Mean / % Turnover % / [metaxalone]: 60 min; for % Turnover % / [metaxalone]: single replicates
T2 sequence (P10632 1-490): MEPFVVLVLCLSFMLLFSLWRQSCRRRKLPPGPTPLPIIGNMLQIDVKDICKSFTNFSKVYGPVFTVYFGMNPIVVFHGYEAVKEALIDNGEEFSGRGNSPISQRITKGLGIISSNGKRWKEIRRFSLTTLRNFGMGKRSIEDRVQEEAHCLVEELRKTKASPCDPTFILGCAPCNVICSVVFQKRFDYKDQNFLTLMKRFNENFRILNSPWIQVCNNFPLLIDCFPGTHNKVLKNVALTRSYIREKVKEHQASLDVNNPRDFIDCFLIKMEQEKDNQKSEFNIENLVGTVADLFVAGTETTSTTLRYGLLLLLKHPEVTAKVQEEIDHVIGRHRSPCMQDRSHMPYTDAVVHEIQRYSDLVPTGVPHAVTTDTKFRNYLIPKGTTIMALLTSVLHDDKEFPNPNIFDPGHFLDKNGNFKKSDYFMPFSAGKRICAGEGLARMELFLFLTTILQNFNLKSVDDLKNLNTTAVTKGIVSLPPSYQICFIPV

CYP2E1 [1] = biological target: T3, CYP2E1 (Homo sapiens, UniProt P05181); experiment: Metabolism of metaxalone by expressed recombinant human CYP2E1 at 5 or 20 pmol (Example 4); conditions: for percent turnover / % Turnover Mean / [metaxalone] Mean / % Turnover % / [metaxalone]: 60 min; for % Turnover % / [metaxalone]: single replicates, listed as Metaxalone
CYP2E1 [2] = biological target: T3, CYP2E1; experiment: Chemical inhibition of metaxalone turnover in human liver microsomes, CYP2E1 inhibitor clomethiazole; conditions: 1 mg/mL HLM, 60 min, with clomethiazole; for % Turnover / % inhibition of turnover / Conc.: single replicates
Method: as §1, §2, §3, §4

[3] = 0.75 μM metaxalone, 5 pmol cyp, listed as Metaxalone
[4] = 0.75 μM metaxalone, 20 pmol cyp
[5] = 0.75 μM metaxalone, 20 pmol cyp, listed as Metaxalone
[6] = 7.5 μM metaxalone, 5 pmol cyp, listed as Metaxalone
[7] = 7.5 μM metaxalone, 20 pmol cyp, listed as Metaxalone

Sequence of CYP2D6 (P10635 whole entry): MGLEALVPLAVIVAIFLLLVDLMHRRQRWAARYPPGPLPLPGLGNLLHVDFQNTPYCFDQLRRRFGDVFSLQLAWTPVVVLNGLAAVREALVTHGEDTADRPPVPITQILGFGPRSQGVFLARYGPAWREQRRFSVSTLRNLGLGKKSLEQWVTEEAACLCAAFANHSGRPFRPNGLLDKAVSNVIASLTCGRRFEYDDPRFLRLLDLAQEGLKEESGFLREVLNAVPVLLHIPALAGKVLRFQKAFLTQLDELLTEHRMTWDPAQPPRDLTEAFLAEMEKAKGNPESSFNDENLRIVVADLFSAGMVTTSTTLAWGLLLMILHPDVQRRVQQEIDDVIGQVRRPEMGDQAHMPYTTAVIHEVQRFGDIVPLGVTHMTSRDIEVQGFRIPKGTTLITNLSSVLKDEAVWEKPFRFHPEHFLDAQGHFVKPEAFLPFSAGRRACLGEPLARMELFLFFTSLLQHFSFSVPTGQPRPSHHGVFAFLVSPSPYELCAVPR
Sequence of CYP3A4 (P08684 2-503 limits assumed): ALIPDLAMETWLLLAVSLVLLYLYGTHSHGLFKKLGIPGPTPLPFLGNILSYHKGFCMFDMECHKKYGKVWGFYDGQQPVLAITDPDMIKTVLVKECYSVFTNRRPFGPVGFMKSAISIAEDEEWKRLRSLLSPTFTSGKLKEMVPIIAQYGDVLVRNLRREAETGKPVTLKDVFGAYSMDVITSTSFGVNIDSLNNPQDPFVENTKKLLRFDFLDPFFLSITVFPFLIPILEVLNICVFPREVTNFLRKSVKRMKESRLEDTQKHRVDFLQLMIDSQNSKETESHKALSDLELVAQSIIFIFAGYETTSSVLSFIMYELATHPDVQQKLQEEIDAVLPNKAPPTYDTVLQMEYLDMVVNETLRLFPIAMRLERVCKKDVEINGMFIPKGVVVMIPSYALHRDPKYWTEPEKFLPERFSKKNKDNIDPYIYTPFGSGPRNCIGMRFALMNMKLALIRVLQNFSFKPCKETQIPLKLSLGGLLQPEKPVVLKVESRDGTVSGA
T3 sequence (P05181 whole entry): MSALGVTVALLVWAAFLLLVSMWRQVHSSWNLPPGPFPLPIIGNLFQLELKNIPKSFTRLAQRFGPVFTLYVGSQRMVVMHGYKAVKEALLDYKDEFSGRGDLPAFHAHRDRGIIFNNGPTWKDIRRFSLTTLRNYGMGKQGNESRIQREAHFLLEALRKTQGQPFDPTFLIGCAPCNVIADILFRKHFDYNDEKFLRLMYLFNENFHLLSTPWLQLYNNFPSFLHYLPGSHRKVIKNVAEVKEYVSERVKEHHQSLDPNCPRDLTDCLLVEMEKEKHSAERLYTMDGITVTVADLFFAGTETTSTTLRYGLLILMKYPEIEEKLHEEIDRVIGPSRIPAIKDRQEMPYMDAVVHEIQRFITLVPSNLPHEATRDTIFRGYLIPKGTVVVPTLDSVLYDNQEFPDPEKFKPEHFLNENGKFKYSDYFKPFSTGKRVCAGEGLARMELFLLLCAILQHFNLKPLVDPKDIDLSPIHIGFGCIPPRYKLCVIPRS
Sequence of CYP2C19 (P33261 whole entry): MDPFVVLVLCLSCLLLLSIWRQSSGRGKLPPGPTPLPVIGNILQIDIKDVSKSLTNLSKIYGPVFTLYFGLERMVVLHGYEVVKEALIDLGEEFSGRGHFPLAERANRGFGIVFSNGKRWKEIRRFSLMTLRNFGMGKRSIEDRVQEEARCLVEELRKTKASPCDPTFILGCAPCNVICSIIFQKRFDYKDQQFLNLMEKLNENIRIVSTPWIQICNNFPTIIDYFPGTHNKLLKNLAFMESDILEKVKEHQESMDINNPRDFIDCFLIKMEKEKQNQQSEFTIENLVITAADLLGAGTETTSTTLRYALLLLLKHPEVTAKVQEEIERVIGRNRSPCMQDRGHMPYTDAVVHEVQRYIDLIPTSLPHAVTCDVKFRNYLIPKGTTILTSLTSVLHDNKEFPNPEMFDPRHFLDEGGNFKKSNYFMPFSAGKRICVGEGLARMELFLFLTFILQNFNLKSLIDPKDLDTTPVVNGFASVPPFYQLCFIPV

## Cc1cc(C)cc(OCC2CNC(=O)O2)c1 (centres unmarked) [metaxalone, 5-[(3,5-dimethylphenoxy)methyl]-2-oxazolidinone]
CYP2D6; 0.75 μM
  Mean Conc.: 0.769 µM
  % Turnover Mean: 0.376%
CYP2D6; 7.5 μM
  Mean Conc.: 7.66 µM
  % Turnover Mean: 10.0%
CYP2C19
  inhibition at 30 min, 100 μM: 35.1%
CYP3A4; metaxalone 0.5 μM
  Metaxalone Present Adjusted Individual: 0.320 µM and 0.323 µM and 0.317 µM
  Metaxalone Present Adjusted Mean ± SD: 0.320 ± 0.00333 µM
  Metaxalone Present Raw: 0.1598 µM and 0.1616 µM and 0.1583 µM
  Percent of Metabolic Negative Control Individual: 101% and 102% and 99.6%
  Percent of Metabolic Negative Control Mean ± SD: 101 ± 1.05%
CYP3A4; metaxalone 2.5 μM
  Metaxalone Present Adjusted Individual: 1.71 µM and 1.66 µM and 1.67 µM
  Metaxalone Present Adjusted Mean ± SD: 1.68 ± 0.0289 µM
  Metaxalone Present Raw: 0.8573 µM and 0.8292 µM and 0.8374 µM
  Percent of Metabolic Negative Control Individual: 99.8% and 96.5% and 97.5%
  Percent of Metabolic Negative Control Mean ± SD: 98.0 ± 1.68%
CYP3A4; metaxalone 25 μM
  Percent of Metabolic Negative Control Individual: 98.1% and 97.1% and 99.3%
  Percent of Metabolic Negative Control Mean ± SD: 98.1 ± 1.10%
CYP2B6; 0.75 μM metaxalone, 5 pmol cyp
  % Turnover Mean: −6.8%
  [metaxalone] Mean: 0.845 µM
CYP2B6; [3]
  % Turnover %: −11.0% and −2.8% and −6.6%
  [metaxalone]: 0.878 µM and 0.813 µM and 0.843 µM
CYP2B6; [4]
  % Turnover Mean: −1.8%
  [metaxalone] Mean: 0.805 µM
CYP2B6; [5]
  % Turnover %: 5.5% and −6.7% and −4.0%
  [metaxalone]: 0.748 µM and 0.845 µM and 0.823 µM
CYP2B6; 7.5 μM metaxalone, 5 pmol cyp
  % Turnover Mean: 3.0%
  [metaxalone] Mean: 8.20 µM
  % Turnover %: −1.3%
CYP2B6; [6]
  % Turnover %: 3.0% and 7.2%
  [metaxalone]: 8.56 µM and 8.19 µM and 7.84 µM
CYP2B6; 7.5 μM metaxalone, 20 pmol cyp
  % Turnover Mean: −0.20%
  [metaxalone] Mean: 8.46 µM
  % Turnover %: −6.0%
CYP2B6; [7]
  % Turnover %: 1.8% and 3.6%
  [metaxalone]: 8.95 µM and 8.29 µM and 8.14 µM
CYP2B6; CYP isozyme 2B6, summary of studies
  Substrate: 0
CYP2C8; 0.75 μM metaxalone, 5 pmol cyp
  % Turnover Mean: −9.3%
  [metaxalone] Mean: 0.865 µM
CYP2C8; [3]
  % Turnover %: −2.6% and −10.9% and −14.3%
  [metaxalone]: 0.812 µM and 0.877 µM and 0.905 µM
CYP2C8; [4]
  % Turnover Mean: 2.9%
  [metaxalone] Mean: 0.768 µM
CYP2C8; [5]
  % Turnover %: 0.19% and 6.1% and 2.5%
  [metaxalone]: 0.790 µM and 0.743 µM and 0.771 µM
CYP2C8; 7.5 μM metaxalone, 5 pmol cyp
  % Turnover Mean: 3.0%
  [metaxalone] Mean: 8.20 µM
  % Turnover %: −1.6%
CYP2C8; [6]
  % Turnover %: 0.21%
  [metaxalone]: 7.58 µM and 8.43 µM and 8.58 µM
CYP2C8; 7.5 μM metaxalone, 20 pmol cyp
  % Turnover Mean: 9.3%
  [metaxalone] Mean: 7.66 µM
CYP2C8; [7]
  % Turnover %: 4.3% and 10.2% and 13.4%
  [metaxalone]: 8.09 µM and 7.59 µM and 7.31 µM
CYP2C8; CYP isozyme 2C8, summary of studies
  Substrate: +
CYP2E1 [1]; 0.75 μM metaxalone, 5 pmol CYP450
  percent turnover: 11.3%
CYP2E1 [1]; 0.75 μM metaxalone, 5 pmol cyp
  % Turnover Mean: 11.3%
  [metaxalone] Mean: 0.631 µM
  % Turnover %: 2.7% and 15.1% and 16.3%
  [metaxalone]: 0.693 µM and 0.604 µM and 0.596 µM
CYP2E1 [1]; 0.75 μM metaxalone, 20 pmol CYP450
  percent turnover: 16.2%
CYP2E1 [1]; [4]
  % Turnover Mean: 16.2%
  [metaxalone] Mean: 0.597 µM
  % Turnover %: 14.6% and 12.6% and 21.3%
  [metaxalone]: 0.608 µM and 0.622 µM and 0.560 µM
CYP2E1 [1]; 7.5 μM metaxalone, 5 pmol CYP450
  percent turnover: 18.4%
CYP2E1 [1]; 7.5 μM metaxalone, 5 pmol cyp
  % Turnover Mean: 18.4%
  [metaxalone] Mean: 6.29 µM
  % Turnover %: 16.9% and 16.7% and 21.7%
  [metaxalone]: 6.41 µM and 6.42 µM and 6.04 µM
CYP2E1 [1]; 7.5 μM metaxalone, 20 pmol CYP450
  percent turnover: 17.2%
CYP2E1 [1]; 7.5 μM metaxalone, 20 pmol cyp
  % Turnover Mean: 17.2%
  [metaxalone] Mean: 6.39 µM
  % Turnover %: 18.0% and 19.0% and 14.5%
  [metaxalone]: 6.33 µM and 6.25 µM and 6.60 µM
CYP2E1 [1]; CYP isozyme 2E1, summary of studies
  Substrate: +
CYP2E1 [2]; 0.75 μM metaxalone
  % inhibition of turnover Mean: 113%
  Mean Conc.: 0.802 µM
  % Turnover: 5.6%
  % inhibition of turnover: 104% and 154% and 81.4%
  Conc.: 0.780 µM and 0.896 µM and 0.729 µM
CYP2E1 [2]; 7.5 μM metaxalone
  % Turnover Mean: 0.356%
  % inhibition of turnover Mean: 98.6%
  Mean Conc.: 8.48 µM
  % Turnover: 2.7%
  % inhibition of turnover: 89.2% and 101% and 105%
  Conc.: 8.29 µM and 8.54 µM and 8.63 µM
